In patent US9765105B2, “Macrolide compound” (Pulike Biological Engineering, Inc., priority 2013, dated 2017):

Assays:
Assay in all cases: in vitro susceptibility, MIC by mini broth dilution
Assay type in all cases: cell-based
[1] = tested on: Staphylococcus aureus CVCC26003; settings: strain CVCC26003
Method in brief: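 MICs were determined by mini broth dilution under NCCLS standards in CAMHB, using revived S. aureus CVCC26003 subcultured 20 h at 35° C. Compounds were two-fold serially diluted in DMSO across 11 wells, with duplicate rows. Bacterial suspension was diluted 1:200 in medium before inoculation.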

Haemophilus parasuis = tested on: Haemophilus parasuis
Method in brief: (§1)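 Bacteria were revived from −20° C stocks and streaked twice on solid medium, each time grown 20 h at 35° C. Compounds were double-diluted in DMSO across 11 wells and tested in two parallel rows. The bacterial suspension was diluted 1:200 with liquid medium before MIC determination by mini broth dilution.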

[2] = tested on: Pasteurella multocida CVCC399; settings: strain CVCC399
Method in brief: as §1

[3] = tested on: Actinobacillus pleuropneumoniae CVCC262; settings: strain CVCC262
Method in brief: as §1

[4] = tested on: Streptococcus equines CVCC556; settings: strain CVCC556
Method in brief: as §1

MIC values, Staphylococcus aureus CVCC26003 [1] [ug/mi]	MIC values, Haemophilus parasuis (Haemophilus parasuis)	MIC values, Pasteurella multocida CVCC399 [2] [ug/mi]	MIC values, Actinobacillus pleuropneumoniae CVCC262 [3]	MIC values, Streptococcus equines CVCC556 [4] [ug/mi]	Compound
0.25	0.25 ug/mi	1	0.25 ug/mi	0.25	CCCN1C[C@H](C)[C@@H](O)[C@](C)(O)[C@@H](CC)OC(=O)[C@H](C)[C@@H](O[C@H]2C[C@@](C)(OC)[C@](O)(CNc3ccccc3F)[C@H](C)O2)[C@H](C)[C@@H](O[C@@H]2O[C@H](C)C[C@H](N(C)C)[C@H]2O)[C@](C)(O)C[C@H]1C [syzx-168]
2	4 ug/mi	8	4 ug/mi	0.25	CCCN1C[C@H](C)[C@@H](O)[C@](C)(O)[C@@H](CC)OC(=O)[C@H](C)[C@@H](O[C@H]2C[C@@](C)(OC)[C@](O)(CNc3cc(Cl)nc(Cl)n3)[C@H](C)O2)[C@H](C)[C@@H](O[C@@H]2O[C@H](C)C[C@H](N(C)C)[C@H]2O)[C@](C)(O)C[C@H]1C [syzx-237]
0.25	0.25 ug/mi	1	0.25 ug/mi	0.25	C#CCNC[C@]1(O)[C@H](C)O[C@@H](O[C@H]2[C@H](C)[C@@H](O[C@@H]3O[C@H](C)C[C@H](N(C)C)[C@H]3O)[C@](C)(O)C[C@@H](C)N(CCC)C[C@H](C)[C@@H](O)[C@](C)(O)[C@@H](CC)OC(=O)[C@@H]2C)C[C@@]1(C)OC [syzx-140]
0.25	0.25 ug/mi	1	0.25 ug/mi	0.25	C#CC=C(C)NC[C@]1(O)[C@H](C)O[C@@H](O[C@H]2[C@H](C)[C@@H](O[C@@H]3O[C@H](C)C[C@H](N(C)C)[C@H]3O)[C@](C)(O)C[C@@H](C)N(CCC)C[C@H](C)[C@@H](O)[C@](C)(O)[C@@H](CC)OC(=O)[C@@H]2C)C[C@@]1(C)OC [syzx-162]
1	0.5 ug/mi	2	0.5 ug/mi	0.25	CC[C@H]1OC(=O)[C@H](C)[C@@H](O[C@H]2C[C@@](C)(OC)[C@](O)(CNc3cc(Cl)ccc3C)[C@H](C)O2)[C@H](C)[C@@H](O[C@@H]2O[C@H](C)C[C@H](N(C)C)[C@H]2O)[C@](C)(O)C[C@@H](C)NC[C@H](C)[C@@H](O)[C@]1(C)O [syzx-94, (2R,3S,4R,5S,8R,10R,11R,12S,13S,14R)-13-[(2,6-dideoxy-3-C-methyl-3-O-methyl-4-C-[(5-chloro-o-methylphenyl-amino)-methyl]-α-L-ribopyranosyl)oxy]-2-ethyl-3,4,10-trihydroxy-3,5,8,10,12,14-hexamethyl-11-[[3,4,6-trideoxy-3-(dimethylamino)-β-D-xylo-hexopyranosy]oxy]-1-oxa-7-azacyclopentadecan-15-one]
4	1 ug/mi	8	1 ug/mi	0.25	CCCN1C[C@H](C)[C@@H](O)[C@](C)(O)[C@@H](CC)OC(=O)[C@H](C)[C@@H](O[C@H]2C[C@@](C)(OC)[C@](O)(CNCc3cccc(OC)c3)[C@H](C)O2)[C@H](C)[C@@H](O[C@@H]2O[C@H](C)C[C@H](N(C)C)[C@H]2O)[C@](C)(O)C[C@H]1C [syzx-127]
4	2 ug/mi	2	4 ug/mi	0.25	CCCN1C[C@H](C)[C@@H](O)[C@](C)(O)[C@@H](CC)OC(=O)[C@H](C)[C@@H](O[C@H]2C[C@@](C)(OC)[C@](O)(CNCC3CCNCC3)[C@H](C)O2)[C@H](C)[C@@H](O[C@@H]2O[C@H](C)C[C@H](N(C)C)[C@H]2O)[C@](C)(O)C[C@H]1C [syzx-193]
1	0.5 ug/mi	0.5	32 ug/mi	0.5	CC[C@H]1OC(=O)[C@H](C)[C@@H](O[C@H]2C[C@@](C)(OC)[C@](O)(CNc3ccnc(Cl)c3)[C@H](C)O2)[C@H](C)[C@@H](O[C@@H]2O[C@H](C)C[C@H](N(C)C)[C@H]2O)[C@](C)(O)C[C@@H](C)NC[C@H](C)[C@@H](O)[C@]1(C)O [syzx-38]
0.25	0.25 ug/mi	0.5	0.25 ug/mi	0.25	CCCN1C[C@H](C)[C@@H](O)[C@](C)(O)[C@@H](CC)OC(=O)[C@H](C)[C@@H](O[C@H]2C[C@@](C)(OC)[C@](O)(CNC(C)C)[C@H](C)O2)[C@H](C)[C@@H](O[C@@H]2O[C@H](C)C[C@H](N(C)C)[C@H]2O)[C@](C)(O)C[C@H]1C [syzx-111]
1	0.5 ug/mi	4	0.5 ug/mi	0.5	CCCN1C[C@H](C)[C@@H](O)[C@](C)(O)[C@@H](CC)OC(=O)[C@H](C)[C@@H](O[C@H]2C[C@@](C)(OC)[C@](O)(CNCCc3ccncc3)[C@H](C)O2)[C@H](C)[C@@H](O[C@@H]2O[C@H](C)C[C@H](N(C)C)[C@H]2O)[C@](C)(O)C[C@H]1C [syzx-191]
2	1 ug/mi	4	1 ug/mi	0.25	CCCN1CC(C)C(O)C(C)(O)C(CC)OC(=O)C(C)C(OC2CC(C)(OC)C(O)(CNNc3ccccc3)C(C)O2)C(C)C(OC2OC(C)CC(N(C)C)C2O)C(C)(O)CC1C (stereo not drawn) [syzx-173]
0.25	0.25 ug/mi	0.5	0.25 ug/mi	0.25	CCCCCNC[C@]1(O)[C@H](C)O[C@@H](O[C@H]2[C@H](C)[C@@H](O[C@@H]3O[C@H](C)C[C@H](N(C)C)[C@H]3O)[C@](C)(O)C[C@@H](C)N(CCC)C[C@H](C)[C@@H](O)[C@](C)(O)[C@@H](CC)OC(=O)[C@@H]2C)C[C@@]1(C)OC [syzx-147]
0.25	0.25 ug/mi	1	0,25 ug/mi	0.25	CCCN1C[C@H](C)[C@@H](O)[C@](C)(O)[C@@H](CC)OC(=O)[C@H](C)[C@@H](O[C@H]2C[C@@](C)(OC)[C@](O)(CN(CC)CC)[C@H](C)O2)[C@H](C)[C@@H](O[C@@H]2O[C@H](C)C[C@H](N(C)C)[C@H]2O)[C@](C)(O)C[C@H]1C [syzx-103]
0.5	≦0.25 ug/mi	1	16 ug/mi	0.5	CC[C@H]1OC(=O)[C@H](C)[C@@H](O[C@H]2C[C@@](C)(OC)[C@](O)(CNN3CCOCC3)[C@H](C)O2)[C@H](C)[C@@H](O[C@@H]2O[C@H](C)C[C@H](N(C)C)[C@H]2O)[C@](C)(O)C[C@@H](C)NC[C@H](C)[C@@H](O)[C@]1(C)O [syzx-48, (2R,3S,4R,5S,8R,10R,11R,12S,13S,14R)-13-[(2,6-dideoxy-3-C-methyl-3-O-methyl-4-C-[(morpholin-4-yl-amino)-methyl]-α-L-ribopyranosyl)oxy]-2-ethyl-3,4,10-trihydroxy-3,5,8,10,12,14-hexamethyl-11-[[3,4,6-trideoxy-3-(dimethylamino)-β-D-xylo-hexopyranosy]oxy]-1-oxa-7-azacyclopentadecan-15-one]
1	0.5 ug/mi	2	0.5 ug/mi	0.25	CCCN1C[C@H](C)[C@@H](O)[C@](C)(O)[C@@H](CC)OC(=O)[C@H](C)[C@@H](O[C@H]2C[C@@](C)(OC)[C@](O)(CNCCOC)[C@H](C)O2)[C@H](C)[C@@H](O[C@@H]2O[C@H](C)C[C@H](N(C)C)[C@H]2O)[C@](C)(O)C[C@H]1C [syzx-125]
